# Reference: patent US9359487B2, “Plasticizers based on mixed esters of succinate” (Proviron Holding N.V., priority 2012, dated 2016)
# Legend:
# Type in all cases: physicochemical
# [1] = Weight loss test (volatility) of transparent plastisole PVC film at 100° C.; conditions: for Volatile: Weight difference @ 100° C. After 4 days (%) / Volatile: Weight difference @ 100° C. After 7 days (%): transparent PVC film, 50 phr plasticiser; for delta vs. ref. (weight difference after 4 days) / delta vs. ref. (weight difference after 7 days): versus DINP
# Description: Their plasticising behaviour is compared in a plastisole based transparent PVC film.
# (flooring type, top layer): Solvin 382NG 100 phr (obtainable from Solvay S.A., Belgium), plasticiser 50 phr, Ca/Zn stabiliser (Baerostab NT 306) 2.5 phr (obtainable from the company Baerlocher).
# The transparent film so formed is subjected to amongst others a weight loss test (volatility) at 100° C. for respectively 4 and 7 days. The plasticiser efficiency is determined by means of a hardness measurement. A measure for the compatibility of the plasticiser is the transparency.
# [2] = Volatility of pure plasticiser by thermal-gravimetrical analysis; conditions: 200° C./10 min, pure compound
# [3] = Extraction of plasticiser in water from plastisole samples; conditions: plastisol, 50 phr plasticizer; for Extractions by H2O (Weight Difference %) 1 d: after 1 day; for Extractions by H2O (Weight Difference %) 7 d: after 7 days; for Extractions by H2O (Weight Difference %) dry: after drying the sample
# Description: Various plastisoles were prepared on the basis of various plasticisers set forth in Table 1, according to the following formulae:
# 100 phr PVC (Vestolit B7021 ultra), 50 phr Plasticiser (Table 1), 3 phr ESBO (Drapex 39) (acting as anti-oxydans), 2 phr Ca/Zn stabiliser (Mark CZ 149).
# Apart from the above, the viscosity property of the plastisole solution was determined after 24 h (viscosity vs. Shear) and the thickening was determined. Apart from this the extraction of the plasticiser in water (expressed as % weight gain/weight loss) after 1 day, 7 days were determined, as well as after drying the sample.
# [4] = Volatility comparison of succinate and adipate ester (tests by the inventors); conditions: versus comparable adipate ester DEHA
SMILES,Volatile: Weight difference @ 100° C. After 4 days (%) [1] [%],Volatile: Weight difference @ 100° C. After 7 days (%) [1] [%],delta vs. ref. (weight difference after 4 days) [1],delta vs. ref. (weight difference after 7 days) [1],Volatily plasticizer (weightloss [m %]) [2] [m %],Extractions by H2O (Weight Difference %) 1 d [3] [%],Extractions by H2O (Weight Difference %) 7 d [3] [%],Extractions by H2O (Weight Difference %) dry [3] [%],volatility compared to di-2-ethylhexyl-adipate (DEHA) [4]
"CCCCCC(CCC)COC(=O)CCC(=O)OCC(CCC)CCCCC (centres unmarked) [DPHS, di-(2-propylheptyl)succinate]",−11.50,−17.60,×5.0,×4.4,,,,,
"CC(C)CCCCCCOC(=O)c1ccccc1 [INB, Isononyl Benzoate]",,,,,−61.7,0.9,1.9,0.5,
"CCCCC(CC)COC(=O)c1ccc(C(=O)OCC(CC)CCCC)cc1 (centres unmarked) [DOTP, Di-octyltherephthalate]",,,,,−4.8,0.8,1.7,0.7,
"CCCCC(CC)COC(=O)CCCCC(=O)OCC(CC)CCCC (centres unmarked) [DOA, Di-octyladepate]",,,,,−18.4,1,2.1,0.7,
"CCCCC(CC)COC(=O)CCC(=O)OCC(CC)CCCC (centres unmarked) [DEHSu, di-2-ethylhexyl-succinate]",,,,,,,,,approximately twice as volatile
"CC(C)CCCCCCOC(=O)c1ccccc1C(=O)OCCCCCCC(C)C [DINP, Di-isononylphthalate]",−2.30,−4.00,,,−4.3,0.8,1.8,0.7,
"CC(C)CCCCCCOC(=O)CCC(=O)OCCCCCCC(C)C [DINS, diisononylsuccinate]",,−24.50,×7.6,×6.1,,,,,
